Reference: ChEMBL document CHEMBL3507680, “University of Dundee, Gates Library screen for HepG2 cell viability”

Experiment: Human HepG2 cell viability assay in 384 well format
Assay type: toxicity, cell-based
Set-up: dose 125 nL, time 70.5 hour; cytotoxicity at 70.5 h: concentration not given beside the values
Details: HepG2 cells, read-out: Inhibition

`Cc1noc(C)c1CSCc1csc(CS(C)(=O)=O)n1` gave a cytotoxicity at 70.5 h of 0.624%.
Work on `CCc1nc(NC2CCN(CC(=O)NC3CC3)CC2)c2cnn(C)c2n1` yielded a cytotoxicity at 70.5 h of 14.5%.
In the case of `Cc1cccc(CN2CCc3nnc(Cn4cccc4)n3CC2)n1`, the cytotoxicity at 70.5 h is reported as -5.46%.
With `CCC(C(=O)NC)N(c1cccc(C)c1)S(C)(=O)=O` (configuration not stated) the cytotoxicity at 70.5 h was 11.9%.
Work on `Cc1ncsc1CN1C[C@@H](OCc2ccccn2)[C@H]2OCCC[C@H]21` yielded a cytotoxicity at 70.5 h of 7.35%.
In the case of `CCSc1ncc(CN2CCN(c3nc(C)ncc3C)CC2)cn1`, the cytotoxicity at 70.5 h is reported as -11.5%.
For `Cc1c(NCC(C)(C)C)cccc1C(=O)N(C)Cc1ncnn1C`, the cytotoxicity at 70.5 h was 21%.
`CNC(=O)COc1ccccc1CNC1CCc2nc(C)nn2C1` (configuration not stated) showed a cytotoxicity at 70.5 h of -6.32%.
Compound `COc1ccc2c(c1)OCC(Cc1cnc(N)c(C)c1)C2` (configuration not stated) has a cytotoxicity at 70.5 h of 1.49%.
In the case of `CC(C)=CCN1CC2(CCN(Cc3c(F)cccc3F)CC2)CC1=O`, the cytotoxicity at 70.5 h is reported as 23.4%.
`O=C(c1ccco1)N1CCO[C@@H]2CN(c3ccccc3)CC[C@@H]2C1` gave a cytotoxicity at 70.5 h of 29.2%.
`Cc1cnn(CC2CCCCN2Cc2nccn2CC(F)(F)F)c1` (configuration not stated) gave a cytotoxicity at 70.5 h of 4.47%.
In the case of `Cc1cc(C(F)(F)F)nn1CC(C)C(=O)NC(C)C` (configuration not stated), the cytotoxicity at 70.5 h is reported as 19.9%.
With `Cc1nc(C2CCCN(C(=O)c3ccc(Cn4cccn4)o3)C2)no1` (configuration not stated) the cytotoxicity at 70.5 h was -12.8%.
`CCCc1nc(C)c(C(=O)NC2CCN(c3ncccn3)CC2)s1` gave a cytotoxicity at 70.5 h of -9.16%.
Compound `O=C(c1nnn(-c2ccccc2F)c1-c1ccccn1)N1CCSCC1` has a cytotoxicity at 70.5 h of -0.794%.
In the case of `CC(C(=O)N1CCCCC1)n1nc(-c2cccs2)cc(N)c1=O` (configuration not stated), the cytotoxicity at 70.5 h is reported as 14.9%.
In the case of `CC(=O)N[C@@H]1Cc2ccccc2[C@H]1Nc1nnc(C2CC2)o1`, the cytotoxicity at 70.5 h is reported as -7.5%.
Work on `OC[C@H]1CN(Cc2c(Cl)cncc2Cl)C[C@H]1CN1CCOCC1` yielded a cytotoxicity at 70.5 h of -10.9%.
`CN(CCc1cn[nH]c1)C(=O)C(c1ccc(F)cc1)N(C)C` (configuration not stated) showed a cytotoxicity at 70.5 h of -9.33%.
In the case of `COCCn1c2c(ccc1=O)CCN(C(=O)Cc1ccsc1)CC2`, the cytotoxicity at 70.5 h is reported as 2.04%.
Work on `COc1ccccc1C1CC(=O)Nc2c1c(=O)[nH]n2C(C)C` (configuration not stated) yielded a cytotoxicity at 70.5 h of 25.6%.
For `Cc1ccc(OCC2CCCN(Cc3ccc(CO)o3)C2)cc1` (configuration not stated), the cytotoxicity at 70.5 h was -3.39%.
With `Fc1ccc(OCCCN2CCCC(Cn3cncn3)C2)cc1` (configuration not stated) the cytotoxicity at 70.5 h was -3.77%.
Work on `Cc1nn(C)c(C)c1C1CCCN1C(=O)CCCc1ccccn1` (configuration not stated) yielded a cytotoxicity at 70.5 h of -4.63%.
`COCC1CC2(CCN(Cc3ccco3)CC2)CN1C(C)C` (configuration not stated) showed a cytotoxicity at 70.5 h of 6.8%.
Compound `C[C@@H]1CN(C(=O)c2ccncc2)CC[C@@]1(O)C1CCOCC1` has a cytotoxicity at 70.5 h of -1.23%.
Compound `Cc1ccc2c(c1)SCC(=O)N2CC(=O)N1CCCC1c1nccs1` (configuration not stated) has a cytotoxicity at 70.5 h of -14%.
Work on `Cn1cc(S(=O)(=O)N2CCCC2Cn2ccnc2)cc1C(N)=O` (configuration not stated) yielded a cytotoxicity at 70.5 h of -5.85%.
With `Cc1nc(C)c(CN2CCOC(CNc3cccnn3)C2)s1` (configuration not stated) the cytotoxicity at 70.5 h was -5.6%.
`CC(C)c1ccc(OCCC(=O)N(C)C)cc1` gave a cytotoxicity at 70.5 h of 12.7%.
In the case of `CCc1cc(N2CCCC(c3noc(CC)n3)C2)ncn1` (configuration not stated), the cytotoxicity at 70.5 h is reported as -5.13%.
`COc1ncccc1NC(=O)N1CCC(c2ccc(O)cc2)CC1` gave a cytotoxicity at 70.5 h of -3.42%.
Compound `Cc1cc(C)cc(C(=O)Nc2ccc(CC3CC(=O)NC3=O)cc2)c1` (configuration not stated) has a cytotoxicity at 70.5 h of -1.28%.
With `CCc1cccc(NC(=O)CCC(=O)N(C)Cc2nc(C)c[nH]2)c1` the cytotoxicity at 70.5 h was 2.2%.
Work on `CC(Cn1ccnc1)NC(=O)N1CCN(Cc2cccnc2)CC1` (configuration not stated) yielded a cytotoxicity at 70.5 h of 0.583%.
In the case of `CS(=O)(=O)CCNC(=O)NCCc1cc2ccccc2o1`, the cytotoxicity at 70.5 h is reported as -4.01%.
Work on `CCC(CNC1CCN(C(=O)N(C)C)CC1)Oc1ccccc1C` (configuration not stated) yielded a cytotoxicity at 70.5 h of 27.1%.
`Cn1c(CC2CCS(=O)(=O)C2)nnc1SCCOc1cccc(Cl)c1` (configuration not stated) showed a cytotoxicity at 70.5 h of -11.2%.
Compound `CC(C)c1n[nH]c(C2CN(C(=O)c3cc(Cl)c[nH]3)CCO2)n1` (configuration not stated) has a cytotoxicity at 70.5 h of -8.73%.
Compound `O=C1CC(c2ccncc2)C2(CCN(Cc3ccc(F)cc3)CC2)N1` (configuration not stated) has a cytotoxicity at 70.5 h of -9.81%.
`CC(=O)c1cccc(S(=O)(=O)NCC(C)(O)c2cccs2)c1` (configuration not stated) gave a cytotoxicity at 70.5 h of -7.85%.
For `Cc1ccccc1C(O)CNS(=O)(=O)Cc1cccc(C#N)c1` (configuration not stated), the cytotoxicity at 70.5 h was -3.55%.
In the case of `CN(C)S(=O)(=O)N1CCO[C@H]2[C@H](Oc3cccnc3)CC[C@@H]21`, the cytotoxicity at 70.5 h is reported as -3.81%.
For `CCN(Cc1noc(CC(C)C)n1)Cc1cccc(F)c1O`, the cytotoxicity at 70.5 h was 12.8%.
With `CC(=O)NCCC(Cc1ccccc1)c1ccco1` (configuration not stated) the cytotoxicity at 70.5 h was -13.4%.
`O=C(NCCC1CN(Cc2cccnc2)CCO1)c1ccsc1` (configuration not stated) showed a cytotoxicity at 70.5 h of 6.62%.
`COc1ccccc1CC(=O)NC(CC(=O)O)c1ccc(C)cc1` (configuration not stated) gave a cytotoxicity at 70.5 h of -6.19%.
With `C=C(C)CN(CC)S(=O)(=O)c1cccc(F)c1C#N` the cytotoxicity at 70.5 h was -9.8%.
`O=C(NCCc1cc(F)ccc1F)NCC(O)C1CC1` (configuration not stated) showed a cytotoxicity at 70.5 h of 11.6%.
In the case of `CN(C)c1cc(CNC(=O)C2COc3ccccc3O2)ccn1` (configuration not stated), the cytotoxicity at 70.5 h is reported as -6.63%.
Compound `CC(C)c1nc(CN(C)C2CCCN(c3cccnn3)C2)no1` (configuration not stated) has a cytotoxicity at 70.5 h of -5.62%.
`NC(=O)C1CCN(S(=O)(=O)c2cnn(-c3ccccc3)c2)C1` (configuration not stated) showed a cytotoxicity at 70.5 h of -3.49%.
Work on `CCc1cc(CN(C)Cc2nc(-c3sccc3C)oc2C)on1` yielded a cytotoxicity at 70.5 h of -9.39%.
In the case of `CSc1ccc2cc(CN(C)CCc3cn[nH]c3)c(=O)[nH]c2c1`, the cytotoxicity at 70.5 h is reported as 2.27%.
For `O=S1(=O)COCCN1CCOc1ccccc1`, the cytotoxicity at 70.5 h was 17.3%.
In the case of `c1ccc(CO[C@@H]2CO[C@@]3(CCN(Cc4ccccn4)C3)C2)nc1`, the cytotoxicity at 70.5 h is reported as -16%.
